Laboratory results: patent US9579314B2 (priority 2015, dated 2017)

How the values were obtained:
[1] = molecular target: Human β2 adrenoceptor (Homo sapiens, UniProt P07550); conditions: read-out: B2 binding affinity
[2] = molecular target: Human M3 receptor (Homo sapiens, UniProt P20309); conditions: read-out: M3 binding affinity
Human M3 receptor, sequence (P20309 whole entry): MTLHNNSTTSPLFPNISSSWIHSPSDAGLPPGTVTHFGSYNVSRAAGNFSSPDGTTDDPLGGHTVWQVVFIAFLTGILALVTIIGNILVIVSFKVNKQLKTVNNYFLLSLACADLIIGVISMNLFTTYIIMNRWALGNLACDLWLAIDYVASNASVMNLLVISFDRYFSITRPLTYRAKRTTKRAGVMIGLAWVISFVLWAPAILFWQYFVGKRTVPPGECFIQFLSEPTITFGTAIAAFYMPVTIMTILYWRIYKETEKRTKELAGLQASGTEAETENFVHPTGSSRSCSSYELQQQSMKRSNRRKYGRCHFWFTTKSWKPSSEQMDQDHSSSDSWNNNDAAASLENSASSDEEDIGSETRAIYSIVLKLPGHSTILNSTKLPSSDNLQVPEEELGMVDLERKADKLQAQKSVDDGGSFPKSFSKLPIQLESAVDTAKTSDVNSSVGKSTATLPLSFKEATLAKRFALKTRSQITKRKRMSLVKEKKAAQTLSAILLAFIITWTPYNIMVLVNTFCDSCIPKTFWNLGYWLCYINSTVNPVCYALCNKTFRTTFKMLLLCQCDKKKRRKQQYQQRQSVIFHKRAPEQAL

Human β2 adrenoceptor, sequence (P07550 whole entry): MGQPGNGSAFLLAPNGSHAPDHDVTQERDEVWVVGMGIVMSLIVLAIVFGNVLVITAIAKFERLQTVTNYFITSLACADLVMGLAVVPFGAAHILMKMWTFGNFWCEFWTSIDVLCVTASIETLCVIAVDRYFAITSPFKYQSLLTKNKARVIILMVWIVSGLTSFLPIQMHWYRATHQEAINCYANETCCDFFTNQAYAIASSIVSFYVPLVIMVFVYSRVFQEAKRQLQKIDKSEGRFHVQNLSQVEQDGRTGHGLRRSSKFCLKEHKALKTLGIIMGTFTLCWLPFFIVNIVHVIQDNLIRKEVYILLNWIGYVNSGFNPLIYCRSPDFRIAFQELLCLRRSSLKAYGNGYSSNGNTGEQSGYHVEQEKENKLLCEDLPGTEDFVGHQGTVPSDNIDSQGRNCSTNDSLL

## O=C(c1ccc(CNC[C@H](O)c2ccc(O)c3[nH]c(=O)ccc23)cc1)N1C[C@H]2CCN(C(=O)COc3cccc([C@](O)(C(=O)OCC4CCN(Cc5ccccc5)CC4)c4ccccc4)c3)[C@H]2C1 [Compound 74, (1-benzylpiperidin-4-yl)methyl (S)-2-hydroxy-2-(3-(2-((3aR,6aR)-5-(4-((((R)-2-hydroxy-2-(8-hydroxy-2-oxo-1,2-dihydroquinolin-5-yl)ethyl)amino)methyl)benzoyl)hexahydropyrrolo[3,4-b]pyrrol-1(2H)-yl)-2-oxoethoxy)phenyl)-2-phenylacetate]
[1]
  IC50: 0.3 to 3 nM
[2]
  IC50: 0.3 to 3 nM

## O=C(N[C@@H]1CCCN(C(=O)COc2cccc([C@](O)(C(=O)OCC3CCN(Cc4ccccc4)CC3)c3ccccc3)c2)C1)c1ccc(CNC[C@H](O)c2ccc(O)c3[nH]c(=O)ccc23)cc1 [Compound 75, (1-benzylpiperidin-4-yl)methyl (S)-2-hydroxy-2-(3-(2-((R)-3-(4-((((R)-2-hydroxy-2-(8-hydroxy-2-oxo-1,2-dihydroquinolin-5-yl)ethyl)amino)methyl)benzamido)piperidin-1-yl)-2-oxoethoxy)phenyl)-2-phenylacetate]
[1]
  IC50: > 3 nM
[2]
  IC50: 0.3 to 3 nM

## O=C(N[C@@H]1CCN(C(=O)COc2cccc([C@](O)(C(=O)OCC3CCN(Cc4ccccc4)CC3)c3ccccc3)c2)C1)c1ccc(CNC[C@H](O)c2ccc(O)c3[nH]c(=O)ccc23)cc1 [Compound 76, (1-benzylpiperidin-4-yl)methyl (S)-2-hydroxy-2-(3-(2-((R)-3-(4-((((R)-2-hydroxy-2-(8-hydroxy-2-oxo-1,2-dihydroquinolin-5-yl)ethyl)amino)methyl)benzamido)pyrrolidin-1-yl)-2-oxoethoxy)phenyl)-2-phenylacetate]
[1]
  IC50: 0.3 to 3 nM
[2]
  IC50: 0.3 to 3 nM

## O=C(c1ccc(CNC[C@H](O)c2ccc(O)c3[nH]c(=O)ccc23)cc1)N1C[C@@H]2CCN(C(=O)COc3cccc([C@](O)(C(=O)OCC4CCN(Cc5ccccc5)CC4)c4ccccc4)c3)[C@@H]2C1 [Compound 77, (1-benzylpiperidin-4-yl)methyl (S)-2-hydroxy-2-(3-(2-((3aS,6aS)-5-(4-((((R)-2-hydroxy-2-(8-hydroxy-2-oxo-1,2-dihydroquinolin-5-yl)ethyl)amino)methyl)benzoyl)hexahydropyrrolo[3,4-b]pyrrol-1(2H)-yl)-2-oxoethoxy)phenyl)-2-phenylacetate]
[1]
  IC50: 0.3 to 3 nM
[2]
  IC50: 0.3 to 3 nM

## COc1cc(C(=O)N2CC(NC(=O)COc3cccc([C@](O)(C(=O)OCC4CCN(Cc5ccccc5)CC4)c4ccccc4)c3)C2)ccc1CNC[C@H](O)c1ccc(O)c2[nH]c(=O)ccc12 [Compound 78, (1-benzylpiperidin-4-yl)methyl (S)-2-hydroxy-2-(3-(2-((1-(4-((((R)-2-hydroxy-2-(8-hydroxy-2-oxo-1,2-dihydroquinolin-5-yl)ethyl)amino)methyl)-3-methoxybenzoyl)azetidin-3-yl)amino)-2-oxoethoxy)phenyl)-2-phenylacetate]
[1]
  IC50: < 0.3 nM
[2]
  IC50: < 0.3 nM

## COc1cc(C(=O)N2CCC3(CCN(C(=O)COc4cccc([C@](O)(C(=O)OCC5CCN(Cc6ccccc6)CC5)c5ccccc5)c4)CC3)CC2)ccc1CNC[C@H](O)c1ccc(O)c2[nH]c(=O)ccc12 [Compound 79, (1-benzylpiperidin-4-yl)methyl (S)-2-hydroxy-2-(3-(2-(9-(4-((((R)-2-hydroxy-2-(8-hydroxy-2-oxo-1,2-dihydroquinolin-5-yl)ethyl)amino)methyl)-3-methoxybenzoyl)-3,9-diazaspiro[5.5]undecan-3-yl)-2-oxoethoxy)phenyl)-2-phenylacetate]
[1]
  IC50: < 0.3 nM
[2]
  IC50: < 0.3 nM

## COc1cc(C(=O)NCC2CCN(C(=O)COc3cccc([C@](O)(C(=O)OCC4CCN(Cc5ccccc5)CC4)c4ccccc4)c3)CC2)ccc1CNC[C@H](O)c1ccc(O)c2[nH]c(=O)ccc12 [Compound 80, (1-benzylpiperidin-4-yl)methyl (S)-2-hydroxy-2-(3-(2-(4-((4-((((R)-2-hydroxy-2-(8-hydroxy-2-oxo-1,2-dihydroquinolin-5-yl)ethyl)amino)methyl)-3-methoxybenzamido)methyl)piperidin-1-yl)-2-oxoethoxy)phenyl)-2-phenylacetate]
[1]
  IC50: < 0.3 nM
[2]
  IC50: 0.3 to 3 nM

## COc1cc(CNC[C@H](O)c2ccc(O)c3[nH]c(=O)ccc23)ccc1C(=O)N1CCC2(CCN(C(=O)COc3cccc([C@](O)(C(=O)OCC4CCN(Cc5ccccc5)CC4)c4ccccc4)c3)CC2)CC1 [Compound 81, (1-benzylpiperidin-4-yl)methyl (S)-2-hydroxy-2-(3-(2-(9-(4-((((R)-2-hydroxy-2-(8-hydroxy-2-oxo-1,2-dihydroquinolin-5-yl)ethyl)amino)methyl)-2-methoxybenzoyl)-3,9-diazaspiro[5.5]undecan-3-yl)-2-oxoethoxy)phenyl)-2-phenylacetate]
[1]
  IC50: 0.3 to 3 nM
[2]
  IC50: 0.3 to 3 nM

## COc1cc(CNC[C@H](O)c2ccc(O)c3[nH]c(=O)ccc23)ccc1C(=O)N1CC(NC(=O)COc2cccc([C@](O)(C(=O)OCC3CCN(Cc4ccccc4)CC3)c3ccccc3)c2)C1 [Compound 82, (1-benzylpiperidin-4-yl)methyl (S)-2-hydroxy-2-(3-(2-((1-(4-((((R)-2-hydroxy-2-(8-hydroxy-2-oxo-1,2-dihydroquinolin-5-yl)ethyl)amino)methyl)-2-methoxybenzoyl)azetidin-3-yl)amino)-2-oxoethoxy)phenyl)-2-phenylacetate]
[1]
  IC50: 0.3 to 3 nM
[2]
  IC50: 0.3 to 3 nM

## CN(CCNC(=O)c1ccc(CCNC[C@H](O)c2ccc(O)c3[nH]c(=O)ccc23)cc1)C(=O)COc1cccc([C@](O)(C(=O)OCC2CCN(Cc3ccccc3)CC2)c2ccccc2)c1 [Compound 84, (1-benzylpiperidin-4-yl)methyl (S)-2-hydroxy-2-(3-(2-((2-(4-(2-(((R)-2-hydroxy-2-(8-hydroxy-2-oxo-1,2-dihydroquinolin-5-yl)ethyl)amino)ethyl)benzamido)ethyl)(methyl)amino)-2-oxoethoxy)phenyl)-2-phenylacetate]
[1]
  IC50: 0.3 to 3 nM
[2]
  IC50: > 3 nM

## O=C(COc1cccc([C@](O)(C(=O)OCC2CCN(Cc3ccccc3)CC2)c2ccccc2)c1)NCCCNC(=O)c1ccc(CCNC[C@H](O)c2ccc(O)c3[nH]c(=O)ccc23)cc1 [Compound 85, (1-benzylpiperidin-4-yl)methyl (S)-2-hydroxy-2-(3-(2-((3-(4-(2-(((R)-2-hydroxy-2-(8-hydroxy-2-oxo-1,2-dihydroquinolin-5-yl)ethyl)amino)ethyl)benzamido)propyl)amino)-2-oxoethoxy)phenyl)-2-phenylacetate]
[1]
  IC50: < 0.3 nM
[2]
  IC50: 0.3 to 3 nM

## O=C(COc1cccc([C@](O)(C(=O)OCC2CCN(Cc3ccccc3)CC2)c2ccccc2)c1)N1CCN(C(=O)c2ccc(CCNC[C@H](O)c3ccc(O)c4[nH]c(=O)ccc34)cc2)CC1 [Compound 86, (1-benzylpiperidin-4-yl)methyl (S)-2-hydroxy-2-(3-(2-(4-(4-(2-(((R)-2-hydroxy-2-(8-hydroxy-2-oxo-1,2-dihydroquinolin-5-yl)ethyl)amino)ethyl)benzoyl)piperazin-1-yl)-2-oxoethoxy)phenyl)-2-phenylacetate]
[1]
  IC50: < 0.3 nM
[2]
  IC50: 0.3 to 3 nM
